What was measured:
[1] = test system: patients with stable HFrEF; experiment: Safety and tolerability (TEAEs, troponin, ECG, Holter) in SAD cohorts, patients with stable HFrEF; type: in vivo, human
Method: Safety and efficacy assessments were conducted by measuring patients' vital signs and laboratory parameters; performing TTE to measure, e.g., systolic ejection time; performing electrocardiograms (e.g., 12-lead ECG), real-time ECG telemetry (e.g., at least 3-lead), and Holter ECG; and measuring levels of troponin (e.g., troponin I and/or troponin T) and 4β-hydroxycholesterol.
The following safety laboratory parameters were measured: (1) hematology parameters (CBC, including differential count, and platelet count); (2) serum chemistry parameters (e.g., sodium, potassium, chloride, bicarbonate, calcium, magnesium, urea, creatinine, ALP, ALT, AST, total bilirubin, glucose, and CPK); and (3) urinalysis parameters (e.g., pH, protein, glucose, leukocyte cstcrasc, and blood).
Abnormal and/or rising troponin values (as per investigator's judgment and taking into account potential baseline troponin elevation frequently observed in heart failure) led to the patient being clinically evaluated for possible myocardial ischemia. […] The entire clinical context (e.g., signs, symptoms, new ECG changes, new troponin, and CK-MB abnormalities) was evaluated and correlated with any other relevant clinical findings, patient's medical history, and laboratory data to determine the clinical significance of the findings. Troponin results performed on Day 2 of Part 1 (SAD) and Day 10 of Part 2 (MAD) at a local lab were reviewed prior to the patient being discharged the next day.
Primary endpoints for this study (safety measures) included the following: treatment-emergent AEs and SAEs; ECG recordings, interpretation, and intervals; vital signs; serum Troponin I concentrations; laboratory abnormalities; and physical examination abnormalities.

healthy subjects = experiment: Safety and tolerability (AEs, ECG, hs-troponin I) after single ascending doses in healthy volunteers; type: in vivo, human
Method: PK and PD data were collected as described herein. […] Changes from Baseline at each postbaseline timepoint were assessed.
A 12-lead electrocardiogram (ECG) was obtained after the subjects had rested in a supine position for at least 10 minutes. […] Digital 12-lead ECG evaluations was performed after 10 minutes of rest at Screening, predose on Day 1 (within 2 hours of dosing), and at various predetermined time points. Each time an ECG was completed, a 10-second paper ECG rhythm strip would also be obtained and maintained in the subject's source documentation.
The ECGs were transmitted to the core ECG laboratory who read the recordings in a blinded manner. An automated methodology was utilized with manual over-reading by a cardiologist. The following intervals were measured: RR, PR, QRS, and QT. Heart rate (HR) was calculated as 60/(RR×1000) (with RR expressed in msec) and rounded to the nearest integer.
Corrected QT interval (QTc) was calculated using the manually over-read QT values per the standard procedures of the central ECG laboratory. Each individual ECG QT value was corrected for HR. The measured QT data were corrected for HR using the Fridericia correction QTcF and the Bazzett method (QTcB) as per the following formulae/method (with QT, RR and QTc expressed in msec): […]
Any abnormal findings judged by the investigator to be clinically important were recorded as adverse events (AEs). AEs were mapped to system organ classes (SOCs) and preferred terms (PTs) using the Medical Dictionary for Regulatory Activities (MedDRA). AEs were monitored during the study and the data analyzed with respect to overall incidence, severity, and potential relationship to study medication. The blinded AEs were presented to the SRC for review after each cohort to aid in their decision on the dose of the subsequent cohort or if the study should be terminated. […] No ECG changes or symptoms were noted.
For the final analysis, the AEs were grouped by treatment group with all of the subjects who received placebo pooled as 1 group. AEs with onset on or after the first dose of study medication, or with an onset before the first dose of study medication that increased in severity on or after the first dose of study medication. Treatment-emergent AEs (defined as AEs starting […]) were summarized for the Safety Analysis Population by MedDRA SOC and PT, and by severity and relationship to treatment. Severe and life-threatening AEs, SAEs, and AEs leading to study withdrawal, if any, were presented in data listings.
Serum samples were drawn for hs-troponin I. Analyses were performed using the Abbott Architect STAT High Sensitivity Troponin I assay.

[2] = SAD Cohorts 1 and 2, 175 mg (n = 8)
[3] = SAD Cohorts 1 and 2, 350 mg (n = 8)
[4] = SAD Cohorts 1 and 2, 400 mg Split Dose (n = 4)
[5] = SAD Cohorts 1 and 2, 550 mg Split Dose (n = 2)
[6] = SAD Cohorts 1 and 2, Total Active (n = 12)

`Cn1cc(S(=O)(=O)[C@@](C)(F)C2CCN(C(=O)Nc3ccon3)CC2)c(C(F)F)n1` [Compound I, (R)-4-(1-((3-(difluoromethyl)-1-methyl-1H-pyrazol-4-yl)sulfonyl)-1-fluoroethyl)-N-(isoxazol-3-yl) piperidine-1-carboxamide] was tested. Which “maximum troponin I level, one subject” value ([1]; 550 mg, 24 hours post-dose (4×ULN)) did it give?
Its value is 0.12 ng/mL.

And the “TEAE: Any SOC, any PT” value [1, 2]?
The value was 2 (25.0) n (%).

What about the “TEAE: Dyspnea” value [1, 2] of the same molecule?
The value was 1 (12.5) n (%).

What about the “TEAE: Fatigue” value [1, 2] of the same molecule?
The value was 1 (12.5) n (%).

What about the “TEAE: Infusion site discomfort” value [1, 2] of the same molecule?
The value was 1 (12.5) n (%).

What about the “TEAE: Urinary tract infection” value [1, 2] of the same molecule?
The value was 1 (12.5) n (%).

And the “TEAE: Any SOC, any PT” value [1, 3]?
Its value is 5 (62.5) n (%).

What about the “TEAE: Bursitis” value [1, 3] of the same molecule?
The value was 1 (12.5) n (%).

And the “TEAE: Diarrhoea” value [1, 3]?
The value was 1 (12.5) n (%).

What about the “TEAE: Hypomagnesemia” value [1, 3] of the same molecule?
Its value is 1 (12.5) n (%).

What about the “TEAE: Oral contusion” value [1, 3] of the same molecule?
The value was 1 (12.5) n (%).

And the “TEAE: Proteinuria” value [1, 3]?
The value was 1 (12.5) n (%).

What about the “TEAE: Anemia” value [1, 4] of the same molecule?
The value was 1 (25.0) n (%).

And the “TEAE: Any SOC, any PT” value [1, 4]?
Its value is 3 (75.0) n (%).

What about the “TEAE: Neck pain” value [1, 4] of the same molecule?
Its value is 1 (25.0) n (%).

And the “TEAE: Orthostatic hypotension” value [1, 4]?
The value was 1 (25.0) n (%).

What about the “TEAE: Ventricular extrasystoles” value [1, 4] of the same molecule?
Its value is 1 (25.0) n (%).

What about the “TEAE: Any SOC, any PT” value [1, 5] of the same molecule?
The value was 1 (50.0) n (%).

And the “TEAE: Cardiac discomfort” value [1, 5]?
The value was 1 (50.0) n (%).

And the “TEAE: Dyspnea” value [1, 5]?
The value was 1 (50.0) n (%).

What about the “TEAE: Troponin increase” value [1, 5] of the same molecule?
The value was 1 (50.0) n (%).

And the “TEAE: Anemia” value [1, 6]?
Its value is 1 (8.3) n (%).

What about the “TEAE: Any SOC, any PT” value [1, 6] of the same molecule?
Its value is 10 (83.3) n (%).

And the “TEAE: Bursitis” value [1, 6]?
The value was 1 (8.3) n (%).

And the “TEAE: Cardiac discomfort” value [1, 6]?
Its value is 1 (8.3) n (%).

What about the “TEAE: Diarrhoea” value [1, 6] of the same molecule?
The value was 1 (8.3) n (%).

What about the “TEAE: Diverticulitis” value [1, 6] of the same molecule?
The value was 1 (8.3)− n (%).

And the “TEAE: Dyspnea” value [1, 6]?
Its value is 1 (8.3) n (%).

What about the “TEAE: Fatigue” value [1, 6] of the same molecule?
The value was 1 (8.3) n (%).

And the “TEAE: Hypomagnesemia” value [1, 6]?
Its value is 1 (8.3) n (%).

What about the “TEAE: Infusion site discomfort” value [1, 6] of the same molecule?
Its value is 1 (8.3) n (%).

And the “TEAE: Neck pain” value [1, 6]?
Its value is 1 (8.3) n (%).

And the “TEAE: Oral contusion” value [1, 6]?
Its value is 1 (8.3) n (%).

And the “TEAE: Orthostatic hypotension” value [1, 6]?
Its value is 1 (8.3) n (%).

What about the “TEAE: Proteinuria” value [1, 6] of the same molecule?
Its value is 1 (8.3) n (%).

And the “TEAE: Troponin increase” value [1, 6]?
The value was 1 (8.3) n (%).

And the “TEAE: Urinary tract infection” value [1, 6]?
The value was 1 (8.3) n (%).

What about the “TEAE: Ventricular extrasystoles” value [1, 6] of the same molecule?
Its value is 1 (8.3) n (%).

What about the “subjects with AEs related to treatment” value (healthy subjects; 50 mg (50.0%)) of the same molecule?
The value was 3 subjects.

And the “serious AE, one subject” value (healthy subjects; 100 mg, 16-22 hours postdosing)?
Its value is “short duration of complete AV block”.

And the “subjects with AEs related to treatment” value (healthy subjects; 350 mg (50.0%))?
Its value is 3 subjects.

What about the hs-troponin I concentration, one subject (healthy subjects; 525 mg, 6 hours postdose, upper limit of normal 15) of the same molecule?
Its hs-troponin I concentration, one subject is 16 ng/L.

Reference: patent publication US20250325531A1, “TREATMENT OF SYSTOLIC DYSFUNCTION” (MyoKardia, Inc., priority 2024, published 2025)
